One may read the IC50 as the concentration that gives 50% inhibition. Higher therefore signals a need for much substance.

Experimental findings from US20230399341A1, “7-PHENYL SUBSTITUTED 2-AMINOQUINAZOLINE INHIBITORS OF HPK1” (MERCK SHARP & DOHME LLC, priority 2020, published 2023) are described below.

For this assay, the target named is T1, Human HPK1, catalytic domain (Homo sapiens, UniProt Q92918).
T1 sequence (Q92918 1-346): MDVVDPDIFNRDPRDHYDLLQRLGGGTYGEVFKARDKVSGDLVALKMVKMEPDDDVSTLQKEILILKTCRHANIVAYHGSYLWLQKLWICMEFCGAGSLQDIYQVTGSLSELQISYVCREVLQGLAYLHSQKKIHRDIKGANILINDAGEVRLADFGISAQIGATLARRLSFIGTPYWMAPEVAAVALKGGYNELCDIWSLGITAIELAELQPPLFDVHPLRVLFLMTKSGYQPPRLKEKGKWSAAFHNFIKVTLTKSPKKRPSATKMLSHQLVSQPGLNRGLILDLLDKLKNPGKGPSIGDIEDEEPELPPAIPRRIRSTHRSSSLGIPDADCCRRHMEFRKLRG
In words: HPK1-SLP76 TR-FRET Assay. It counts as biochemical. The note with it: 75 pM HPK1, ATP 10 uM, SLP76 10 nM, 30 min pre-incubation, 60 min reaction. On the technique in general: TR-FRET usually uses a lanthanide donor and a delayed reading to cut background.
Regarding `COc1nc(C2(C#N)CC2)ccc1Nc1ncc2c(N)c(F)c(-c3cnc4c(c3C)NCCO4)cc2n1` [Compound 2-68, 1-(5-{[5-amino-6-fluoro-7-(8-methyl-2,3-dihydro-1H-pyrido[2,3-b][1,4]oxazin-7-yl)quinazolin-2-yl]amino}-6-methoxypyridin-2-yl)cyclopropane-1-carbonitrile], it took 14.3 nM to reach half-maximal inhibition (IC50).
In turn, `COc1cc(F)ccc1Nc1ncc2c(N)c(F)c(-c3cnc4c(c3C)NCCO4)cc2n1` [Compound 2-69, 6-fluoro-N~2~-(4-fluoro-2-methoxyphenyl)-7-(8-methyl-2,3-dihydro-1H-pyrido[2,3-b][1,4]oxazin-7-yl)quinazoline-2,5-diamine] showed an IC50 of 0.51 nM.
Next, `Cc1c(-c2cc3nc(Nc4ccc5c(c4)CN(C)CC5)ncc3c(N)c2F)cnc2c1NCCO2` [Compound 2-70, 6-fluoro-7-(8-methyl-2,3-dihydro-1H-pyrido[2,3-b][1,4]oxazin-7-yl)-N˜2˜-(2-methyl-1,2,3,4-tetrahydroisoquinolin-7-yl)quinazoline-2,5-diamine]: 0.0508 nM; `COc1ccccc1Nc1ncc2c(N)c(F)c(-c3cnc4c(c3C)NCCO4)cc2n1` [Compound 2-71, 6-fluoro-N~2~-(2-methoxyphenyl)-7-(8-methyl-2,3-dihydro-1H-pyrido[2,3-b][1,4]oxazin-7-yl)quinazoline-2,5-diamine]: 0.254 nM; `COc1cc2c(cc1Nc1ncc3c(N)c(F)c(-c4cnc5c(c4C)NCCO5)cc3n1)CN(C(C)C)CC2` [Compound 2-72, 6-fluoro-N~2~-[6-methoxy-2-(propan-2-yl)-1,2,3,4-tetrahydroisoquinolin-7-yl]-7-(8-methyl-2,3-dihydro-1H-pyrido[2,3-b][1,4]oxazin-7-yl)quinazoline-2,5-diamine]: 0.117 nM.
Next, `Cc1c(-c2cc3nc(Nc4ccc5c(c4)CN(C)CC54CC4)ncc3c(N)c2F)cnc2c1NCCO2` [Compound 2-73, 6-fluoro-7-(8-methyl-2,3-dihydro-1H-pyrido[2,3-b][1,4]oxazin-7-yl)-N~2~- (2′-methyl-2′,3′-dihydro-1′H-spiro[cyclopropane-1,4′-isoquinolin]-7′-yl)quinazoline-2,5-diamine]: 0.0508 nM; `CNC(=O)c1ccc(Nc2ncc3c(N)c(F)c(-c4cnc5c(c4C)NCCO5)cc3n2)c(OC)c1` [Compound 2-74, 4-{[5-amino-6-fluoro-7-(8-methyl-2,3-dihydro-1H-pyrido[2,3-b][1,4]oxazin-7-yl)quinazolin-2-yl]amino}-3-methoxy-N-methylbenzamide]: 0.266 nM; `COc1cc2c(cc1Nc1ncc3c(N)c(F)c(-c4cnc5c(c4C)NCCO5)cc3n1)CN(C)CC2(C)C` [Compound 2-75, 6-fluoro-N~2~-(6-methoxy-2,4,4-trimethyl-1,2,3,4-tetrahydroisoquinolin-7-yl)-7-(8-methyl-2,3-dihydro-1H-pyrido[2,3-b][1,4]oxazin-7-yl)quinazoline-2,5-diamine]: 0.325 nM.
Turning to `Cc1c(-c2cc3nc(Nc4ccc5c(c4)CN(C(C)C)CC5)ncc3c(N)c2F)cnc2c1NCCO2` [Compound 2-76, 6-fluoro-7-(8-methyl-2,3-dihydro-11H-pyrido[2,3-b][1,4]oxazin-7-yl)-N˜2˜-[2-(propan-2-yl)-1,2,3,4-tetrahydroisoquinolin-7-yl]quinazoline-2,5-diamine], half-maximal inhibition (IC50) was put at 0.0321 nM.
Next, `COc1ccc(Nc2ncc3c(N)c(F)c(-c4cnc5c(c4C)NCCO5)cc3n2)c(C)n1` [Compound 2-77, 6-fluoro-N~2~-(6-methoxy-2-methylpyridin-3-yl)-7-(8-methyl-2,3-dihydro-1H-pyrido[2,3-b][1,4]oxazin-7-yl)quinazoline-2,5-diamine]: 0.782 nM; `Cc1c(-c2cc3nc(Nc4ccc5c(c4)CN(C)C5=O)ncc3c(N)c2F)cnc2c1NCCO2` [Compound 2-78, 5-{[5-amino-6-fluoro-7-(8-methyl-2,3-dihydro-1H-pyrido[2,3-b][1,4]oxazin-7-yl)quinazolin-2-yl]amino}-2-methyl-2,3-dihydro-1H-isoindol-1-one]: 0.0198 nM; `CNC(=O)C1(c2ccc(Nc3ncc4c(N)c(F)c(-c5cnc6c(c5C)NCCO6)cc4n3)cc2)CCCCC1` [Compound 2-80, 1-(4-((5-amino-6-fluoro-7-(8-methyl-2,3-dihydro-1H-pyrido[2,3-b][1,4]oxazin-7-yl)quinazolin-2-yl)amino)phenyl)-N-methylcyclohexane-1-carboxamide]: 0.0728 nM.
Next, `CNC(=O)C1(c2ccc(Nc3ncc4c(N)c(F)c(-c5cnc6c(c5C)NCCO6)cc4n3)cc2)CC1` [Compound 2-81, 1-(4-((5-amino-6-fluoro-7-(8-methyl-2,3-dihydro-1H-pyrido[2,3-b][1,4]oxazin-7-yl)quinazolin-2-yl)amino)phenyl)-N-methylcyclopropane-1-carboxamide]: 0.0441 nM; `CNC(=O)C1(c2ccc(Nc3ncc4c(N)c(F)c(-c5cnc6c(c5C)NCCO6)cc4n3)cc2)CCC1` [Compound 2-82, 1-(4-((5-amino-6-fluoro-7-(8-methyl-2,3-dihydro-1H-pyrido[2,3-b][1,4]oxazin-7-yl)quinazolin-2-yl)amino)phenyl)-N-methylcyclobutane-1-carboxamide]: 0.0309 nM; `CNC(=O)C1(c2ccc(Nc3ncc4c(N)c(F)c(-c5cnc6c(c5C)NCCO6)cc4n3)cc2)CCCC1` [Compound 2-83, 1-(4-((5-amino-6-fluoro-7-(8-methyl-2,3-dihydro-1H-pyrido[2,3-b][1,4]oxazin-7-yl)quinazolin-2-yl)amino)phenyl)-N-methylcyclopentane-1-carboxamide]: 0.0417 nM.
In the case of `Cc1c(-c2cc3nc(Nc4ccc(CS(C)(=O)=O)nc4)ncc3c(N)c2F)cnc2c1NCCO2` [Compound 2-84, 6-fluoro-7-(8-methyl-2,3-dihydro-1H-pyrido[2,3-b][1,4]oxazin-7-yl)-N2-(6-((methylsulfonyl)methyl)pyridin-3-yl)quinazoline-2,5-diamine] it was 0.0222 nM.
As for `Cc1c(-c2cc3nc(Nc4cc5c(cc4C(N)=O)CCN(C)C5)ncc3c(N)c2F)cnc2c1NCCO2` [Compound 2-87, 7-((5-amino-6-fluoro-7-(8-methyl-2,3-dihydro-1H-pyrido[2,3-b][1,4]oxazin-7-yl)quinazolin-2-yl)amino)-2-methyl-1,2,3,4-tetrahydroisoquinoline-6-carboxamide], the IC50 is 100 nM.
Next, `COc1cc2c(cc1Nc1ncc3c(N)c(F)c(-c4cnc5c(c4C)NCCO5)cc3n1)CCN(C)C2` [Compound 2-88, 6-fluoro-N2-(7-methoxy-2-methyl-1,2,3,4-tetrahydroisoquinolin-6-yl)-7-(8-methyl-2,3-dihydro-1H-pyrido[2,3-b][1,4]oxazin-7-yl)quinazoline-2,5-diamine]: 0.377 nM.
In the case of `CCS(=O)(=O)Cc1ccc(Nc2ncc3c(N)c(F)c(-c4cnc5c(c4C)NCCO5)cc3n2)cc1` [Compound 2-89, N2-(4-((ethylsulfonyl)methyl)phenyl)-6-fluoro-7-(8-methyl-2,3-dihydro-1H-pyrido[2,3-b][1,4]oxazin-7-yl)quinazoline-2,5-diamine], half-maximal inhibition (IC50) was put at 0.0117 nM.
In the case of `COc1cc2c(cc1Nc1ncc3c(N)c(F)c(-c4cnc5c(c4C)NCCO5)c(Cl)c3n1)CN(C)CC2` [Compound 2-90, (+ and −)-8-chloro-6-fluoro-N~2~-(6-methoxy-2-methyl-1,2,3,4-tetrahydroisoquinolin-7-yl)-7-(8-methyl-2,3-dihydro-1H-pyrido[2,3-b][1,4]oxazin-7-yl)quinazoline-2,5-diamine] it was 0.0355 nM; in that of `Cc1c(-c2c(F)c(N)c3cnc(Nc4ccc(CS(C)(=O)=O)cc4)nc3c2Cl)cnc2c1NCCO2` [Compound 2-91, (+ or −)-8-chloro-6-fluoro-7-(8-methyl-2,3-dihydro-1H-pyrido[2,3-b][1,4]oxazin-7-yl)-N~2~- {4-[(methylsulfonyl)methyl]phenyl}quinazoline-2,5-diamine], 1.32 nM; in that of `Cc1c(-c2c(F)c(N)c3cnc(Nc4ccc(CS(C)(=O)=O)cc4)nc3c2Cl)cnc2c1NCCO2` [Compound 2-92, (+ or −)-8-chloro-6-fluoro-7-(8-methyl-2,3-dihydro-1H-pyrido[2,3-b[1,4]oxazin-7-yl)-N~2~- {4-[(methylsulfonyl)methyl]phenyl}quinazoline-2,5-diamine], 0.0399 nM.
In the case of `COc1cc2c(cc1Nc1ncc3c(N)c(F)c(-c4cnc5c(c4C)NCCO5)c(Cl)c3n1)CN(C)CC2` [Compound 2-94, (+ or −)-8-chloro-6-fluoro-N~2~-(6-methoxy-2-methyl-1,2,3,4-tetrahydroisoquinolin-7-yl)-7-(8-methyl-2,3-dihydro-1H-pyrido[2,3-b][1,4]oxazin-7-yl)quinazoline-2,5-diamine] it was 5.77 nM; in that of `Cc1c(-c2c(F)c(N)c3cnc(Nc4ccc5c(c4)CN(C)CC5)nc3c2Cl)cnc2c1NCCO2` [Compound 2-95, (+ or −)-8-chloro-6-fluoro-7-(8-methyl-2,3-dihydro-1H-pyrido[2,3-b][1,4]oxazin-7-yl)-N~2~- (2-methyl-1,2,3,4-tetrahydroisoquinolin-7-yl)quinazoline-2,5-diamine], 0.0589 nM.
Next, `Cc1c(-c2c(F)c(N)c3cnc(Nc4ccc5c(c4)CN(C(C)C)CC5)nc3c2Cl)cnc2c1NCCO2` [Compound 2-96, (+ or −)-8-chloro-6-fluoro-7-(8-methyl-2,3-dihydro-1H-pyrido[2,3-b[1,4]oxazin-7-yl)-N~2~- [2-(propan-2-yl)-1,2,3,4-tetrahydroisoquinolin-7-yl]quinazoline-2,5-diamine]: 0.0825 nM.
